Read-outs that look alike come from different tables or passages of the source.
Columns and labels:
[1] = target: T1, human α4β2 (Homo sapiens, UniProt P17787+P43681); test: Calcium flux functional assay, inhibition of nicotine response in SH-EP1-human α4β2 cells; format: cell-based; conditions: nicotine 1 μM
T1 construct: host or cells: SH-EP1
Method: (§1) SH-EP1-human α4β2 (Eaton et al., 2003), SH-EP1-human α4β4 (Gentry et al., 2003) and SH-EP1-α6β3β4α5 (Grinevich at al., 2005) cell lines were obtained from Dr. Ron Lukas (Barrow Neurological Institute). The SH-EP1 cell lines, PC12, SH-SY5Y and TE671/RD cells were maintained in proliferative growth phase in Dulbecco's modified Eagle's medium (Invitrogen, Carlsbad, Calif.) with 10% horse serum (Invitrogen), 5% fetal bovine serum (HyClone, Logan Utah), 1 mM sodium pyruvate, 4 mM L-glutamine. For maintenance of stable transfectants, the α4β2 and α4β4 cell media was supplemented with 0.25 mg/mL zeocin and 0.13 mg/mL hygromycin B. Selection was maintained for the α6β3β4α5 cells with 0.25 mg/mL of zeocin, 0.13 mg/mL of hygromycin B, 0.4 mg/mL of geneticin, and 0.2 mg/mL of blasticidin.
(§2) Twenty-four to forty-eight hours prior to each experiment, cells were plated in 96 well black-walled, clear bottom plates (Corning, Corning, N.Y.) at 60-100,000 cells/well. On the day of the experiment, growth medium was gently removed, 200 μL 1×FLIPR Calcium 4 Assay reagent (Molecular Devices, Sunnyvale, Calif.) in assay buffer (20 mM HEPES, 7 mM TRIS base, 4 mM CaCl2, 5 mM D-glucose, 0.8 mM MgSO4, 5 mM KCl, 0.8 mM MgCl2, 120 mM N-methyl D-glucamine, 20 mM NaCl, pH 7.4 for SH-EP1-human α4β2 cells or 10 mM HEPES, 2.5 mM CaCl2, 5.6 mM D-glucose, 0.8 mM MgSO4, 5.3 mM KCl, 138 mM NaCl, pH 7.4 with TRIS-base for all other cell lines) was added to each well and plates were incubated at 37° C. for 1 hour (29° C. for the 29° C.-treated SH-EP1-human α4β2 cells). For inhibition studies, competitor compound (10 pM-10 μM) was added at the time of dye addition. The plates were removed from the incubator and allowed to equilibrate to room temperature. Plates were transferred to a FLIPR Tetra fluorometric imaging plate reader (Molecular Devices) for addition of compound and monitoring of fluorescence (excitation 485 nm, emission 525 nm). The amount of calcium flux was compared to both a positive (nicotine) and negative control (buffer alone). The positive control was defined as 100% response and the results of the test compounds were expressed as a percentage of the positive control. For inhibition studies, the agonist nicotine was used at concentrations of 1 μM for SH-EP1-human α4β2 and SH-EP1-human α4β4 cells, 10 μM for PC12 and SH-SY5Y cells, and 100 μM for TE671/RD cells.

[2] = target: T1, human α4β2; test: Competition binding to human α4β2 nicotinic receptors in membrane preparations ([3H]-nicotine); conditions: [3H]-nicotine competition, membranes
[3] = target: T2, Human Ganglion (Homo sapiens, UniProt P30926+P32297); test: Calcium flux functional assay, inhibition of nicotine response at human ganglionic receptor subtype; format: cell-based; conditions: read-out: Human Ganglion Ca Flux Imax
T2 construct: Human Ganglion Ca Flux IC50; Human Ganglion Ca Flux Imax
Method: as §1, §2

[4] = 29C/HS (29° C.-treated SH-EP1-human α4β2 cells)
[5] = 29C/HS (29° C.-treated SH-EP1-human α4β2 cells), read-out: Human α4β2 Ca Flux IC50 [29C/HS]
[6] = 37C/LS, read-out: Human α4β2 Ca Flux IC50 [37C/LS]
[7] = 29C/HS (29° C.-treated SH-EP1-human α4β2 cells), read-out: Human α4β2 Ca Flux Imax [29C/HS]
[8] = 37C/LS, read-out: Human α4β2 Ca Flux Imax [37C/LS]

Structure (SMILES) | Human α4β2 Ca Flux Imax [29C/HS] [1, 4] | IC50 [1, 5] | Human α4β2 Ca Flux Imax [37C/LS] ([1]; 37C/LS) | IC50 [1, 6] | Ki ([2]; read-out: Human α4β2 Ki) | Emax [1, 7] | Emax [1, 8] | Emax [3] | Ki ([2]; Human α4β2 Ki) | IC50 ([1]; Human α4β2 Ca Flux IC50 [37C/LS], 37C/LS)
CNC1C2(CCC2)[C@@H]2CC[C@@]1(C)C2(C)C (stereo partly drawn) [drawing 34] | 97 % inh | 310 nM | 93 % inh | 270 nM | > 10 µM |  |  |  |  | 
CNC1(C)C2CCC(C2)C12CC2 (stereo not drawn) |  | 380 nM |  | 120 nM | > 10 µM | 97% | 93% | 98% |  | 
CNC1C2CCC(C2)C12CCC2 (stereo not drawn) |  | 1000 nM |  | 500 nM |  | 99% | 97% | 97% | > 10 µM | 
CN(C)C1C2CCC(C2)C12CCC2 (stereo not drawn) |  | 1800 nM |  | 620 nM | 2.6 µM | 98% | 98% | 98% |  | 
CN(C)C1C2(CCC2)[C@@H]2CC[C@@]1(C)C2(C)C (stereo partly drawn) [drawing 38] | 95 % inh | 740 nM | 95 % inh | 380 nM | 2.6 µM |  |  |  |  | 
CN(C)C1C2(CCC2)[C@H]2CC[C@]1(C)C2(C)C (stereo partly drawn) [drawing 36] | 96 % inh | 140 nM | 95 % inh | 350 nM | > 10 µM |  |  |  |  | 
CNC1C2(CCC2)[C@@H]2CC[C@@]1(C)C2(C)C (stereo partly drawn) [drawing 33] |  | 1000 nM |  | 600 nM | > 10 µM | 97% | 95% | 95% |  | 
CN[C@@]1(C)[C@@H]2CC[C@@H](C2)C12CCC2 (single isomer, unassigned) [drawing 30] | 98 % inh |  | 94 % inh |  | > 10 µM |  |  |  |  | 
CN(C)C1C2(CCC2)[C@@H]2CC[C@@]1(C)C2(C)C (stereo partly drawn) [drawing 37] |  | 1100 nM |  | 280 nM | 3.2 µM | 96% | 95% | 95% |  | 
C1CN(C2C3CCC(C3)C23CCC3)C1 (stereo not drawn) |  | 1400 nM |  | 740 nM |  | 96% | 98% | 89% |  | 
CNC1C2(CCC2)[C@H]2CC[C@]1(C)C2(C)C (stereo partly drawn) [drawing 32] | 98 % inh | 710 nM | 96 % inh | 430 nM | 5.6 µM |  |  |  |  | 
C1CCN(C2C3CCC(C3)C23CCC3)C1 (stereo not drawn) |  | 1400 nM |  |  | 3.8 µM | 90% | 96% | 79% |  | 59 nM
CNC1(C)C2CCC(CC2)C12CCCC2 (stereo not drawn) |  |  |  | 400 nM | 0.3 µM |  | 95% | 92% |  | 
CNC1C2(CCC2)[C@H]2CC[C@]1(C)C2(C)C (stereo partly drawn) [drawing 31] |  | 1300 nM |  | 498 nM | > 10 µM | 99% | 96% | 97% |  | 
CN(C)C1C2(CCC2)[C@H]2CC[C@]1(C)C2(C)C (stereo partly drawn) [drawing 35] |  | 540 nM |  | 520 nM | > 10 µM | 96% | 97% | 98% |  | 
CNC1(C)C2CCC(C2)C12CCCC2 (stereo not drawn) |  | 1100 nM |  | 120 nM | > 10 µM | 99% | 100% | 96% |  | 
CN[C@@]1(C)[C@@H]2CC[C@@H](C2)C12CCC2 (single isomer, unassigned) [drawing 29] | 98 % inh |  | 96 % inh |  | > 10 µM |  |  |  |  | 
CN[C@@]1(C)[C@@H]2CC[C@@H](C2)C12CCC2 (racemic) |  |  |  |  | 8.7 µM | 98% | 95% | 93% |  | 
CNC1C2CCC(C2)C12CC2 (stereo not drawn) |  | 2100 nM |  | 570 nM |  | 97% | 93% | 93% | 0.54 µM | 
